Laboratory results reported in patent publication US20200216417A1, “INHIBITORS OF FIBROBLAST ACTIVATION PROTEIN” (Praxis Biotech LLC, priority 2019, published 2020).
Where two headings read alike, the source gives them in different places.

Experiments:
[1] = target: T1, recombinant human DPP9 (rhDPP9) (Homo sapiens, UniProt Q86TI2); assay: DPP9 inhibition assay, 10 ng rhDPP9, Tris-HCl/BSA buffer; format: biochemical; conditions: Table 3B
T1 construct: purchased R&S system / R&D systems (both sic) 5419-SE

[2] = target: T2, recombinant human DPPIV (rhDPPIV) (Homo sapiens, UniProt P27487); assay: DPPIV enzymatic activity assay, H-Gly-Pro-pNA; format: biochemical
T2 construct: purchased R&S system (so in the source)

[3] = target: T3, recombinant human PREP (rhPREP) (Homo sapiens, UniProt P48147); assay: PREP enzymatic activity assay, Z-Gly-Pro-AMC; format: biochemical
T3 sequence (P48147 1-710): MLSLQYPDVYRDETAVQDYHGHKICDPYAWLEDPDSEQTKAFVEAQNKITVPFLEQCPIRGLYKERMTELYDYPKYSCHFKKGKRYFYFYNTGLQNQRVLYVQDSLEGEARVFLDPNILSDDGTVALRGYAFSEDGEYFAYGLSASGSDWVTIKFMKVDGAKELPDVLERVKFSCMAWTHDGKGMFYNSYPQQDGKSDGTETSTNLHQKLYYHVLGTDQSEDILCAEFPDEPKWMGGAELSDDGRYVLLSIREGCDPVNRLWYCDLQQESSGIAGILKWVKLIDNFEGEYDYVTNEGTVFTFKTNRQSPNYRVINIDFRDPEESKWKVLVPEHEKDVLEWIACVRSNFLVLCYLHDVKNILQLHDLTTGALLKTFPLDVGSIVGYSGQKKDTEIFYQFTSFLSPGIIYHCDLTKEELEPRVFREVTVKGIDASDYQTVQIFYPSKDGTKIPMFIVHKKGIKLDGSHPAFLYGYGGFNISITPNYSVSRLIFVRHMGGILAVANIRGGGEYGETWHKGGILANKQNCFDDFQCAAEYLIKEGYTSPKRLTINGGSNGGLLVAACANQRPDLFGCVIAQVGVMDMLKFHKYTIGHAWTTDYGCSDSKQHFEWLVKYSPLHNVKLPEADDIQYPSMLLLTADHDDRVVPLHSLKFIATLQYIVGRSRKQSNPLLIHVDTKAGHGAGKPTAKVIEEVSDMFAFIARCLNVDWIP

[4] = target: T4, recombinant human FAPα (rhFAPα) (Homo sapiens, UniProt Q12884); assay: FAPα enzymatic exopeptidase (dipeptidase) activity assay, Z-Gly-Pro-AMC; format: biochemical; conditions: for inhibition at 1 µM / rhFAPα (% exo inh @ 1 μM): exopeptidase inhibition at 1 μM test compound
T4 construct: purchased R&S system (so in the source)
T4 sequence (Q12884 1-760): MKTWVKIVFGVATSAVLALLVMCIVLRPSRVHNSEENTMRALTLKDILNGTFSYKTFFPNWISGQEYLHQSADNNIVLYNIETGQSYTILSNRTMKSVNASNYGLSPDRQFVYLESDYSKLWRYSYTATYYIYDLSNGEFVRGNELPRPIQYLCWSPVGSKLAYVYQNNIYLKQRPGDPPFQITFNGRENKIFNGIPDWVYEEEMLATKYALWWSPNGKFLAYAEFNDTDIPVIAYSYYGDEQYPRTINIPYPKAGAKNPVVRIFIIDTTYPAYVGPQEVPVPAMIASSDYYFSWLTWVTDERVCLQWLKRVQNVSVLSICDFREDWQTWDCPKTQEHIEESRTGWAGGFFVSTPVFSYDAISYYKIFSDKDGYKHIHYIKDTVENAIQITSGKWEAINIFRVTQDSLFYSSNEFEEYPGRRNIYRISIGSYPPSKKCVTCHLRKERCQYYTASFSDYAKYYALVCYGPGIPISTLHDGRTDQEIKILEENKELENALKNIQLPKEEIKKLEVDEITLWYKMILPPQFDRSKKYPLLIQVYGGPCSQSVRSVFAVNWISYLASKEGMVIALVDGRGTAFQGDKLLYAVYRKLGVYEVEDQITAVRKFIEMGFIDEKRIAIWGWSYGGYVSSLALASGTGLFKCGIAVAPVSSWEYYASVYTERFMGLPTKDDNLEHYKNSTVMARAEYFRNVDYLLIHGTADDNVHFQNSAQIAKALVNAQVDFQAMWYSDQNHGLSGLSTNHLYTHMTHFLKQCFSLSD

[5] = system: human AML cell line MV4-11; assay: Cytotoxicity assay in human leukemia cell lines (Cell-Titer Glo); conditions: MV4-11, 48 h, read-out: MV4-11 viability IC50, μM
[6] = target: T5, DPPIV (Mus musculus, UniProt P28843); assay: DPPIV enzymatic activity in mouse plasma (H-Gly-Pro-AMC); format: biochemical, C57BL/6 mouse; conditions: H-Gly-Pro-AMC substrate
T5 construct: from tissue; host or cells: C57BL/6 mouse plasma (EDTA)
Protocol: Approximately 500 μL of whole blood from one C57BL/6 mouse was harvested into BD Microtainer® tubes (K2) EDTA (#365974, Becton Dickinson and Co.) via terminal cardiac puncture. The blood sample was immediately centrifuged at approximately 9000 g at 4° C. for 5 minutes. Plasma was separated and stored at −80° C. in aliquots of 300 μL. To assay baseline DPPIV enzymatic exopeptidase activity, 5 μL of thawed, mouse plasma was diluted (1:5) in buffer (100 mM Tris-HCl, 400 mM NaCl, 50 mM salicylic acid, 1 mM EDTA, pH 7.5) and mixed with 35 μL of the same buffer before being pre-incubated with different concentrations of 10 μL of test compounds or DMSO vehicle for 15 minutes at 37° C. in 96-well black plates (Nunc, #237108). After pre-incubation, 50 μL of 200 μM dipeptide substrate H-Gly-Pro-AMC (Bachem, # L-1225) was added to the mixture. The assay was performed for 1 hour at 37° C. 7-Amino-4-Methylcoumarin (AMC) release was detected measuring fluorescence at an excitation wavelength of 360 nm and an emission wavelength of 460 nm using a Multifunction Microplate Reader (Synergy 4, Biotek). All measurements were carried out at least in duplicate.

[7] = target: T1, recombinant human DPP9 (rhDPP9); assay: DPP9 enzymatic activity assay, 40 ng rhDPP9, HEPES buffer; format: biochemical; conditions: Table 3A
[8] = Table 3B, read-out: rhFAPα % exo inh @ 1 μM
[9] = Table 2, read-out: rhFAPα (% exo inh @ 1 μM)
[10] = exopeptidase, Table 2, read-out: rhFAPα (exo IC50)
[11] = exopeptidase, Table 3A, read-out: rhFAPα (exo IC50)

T1 sequence (Q86TI2 whole entry): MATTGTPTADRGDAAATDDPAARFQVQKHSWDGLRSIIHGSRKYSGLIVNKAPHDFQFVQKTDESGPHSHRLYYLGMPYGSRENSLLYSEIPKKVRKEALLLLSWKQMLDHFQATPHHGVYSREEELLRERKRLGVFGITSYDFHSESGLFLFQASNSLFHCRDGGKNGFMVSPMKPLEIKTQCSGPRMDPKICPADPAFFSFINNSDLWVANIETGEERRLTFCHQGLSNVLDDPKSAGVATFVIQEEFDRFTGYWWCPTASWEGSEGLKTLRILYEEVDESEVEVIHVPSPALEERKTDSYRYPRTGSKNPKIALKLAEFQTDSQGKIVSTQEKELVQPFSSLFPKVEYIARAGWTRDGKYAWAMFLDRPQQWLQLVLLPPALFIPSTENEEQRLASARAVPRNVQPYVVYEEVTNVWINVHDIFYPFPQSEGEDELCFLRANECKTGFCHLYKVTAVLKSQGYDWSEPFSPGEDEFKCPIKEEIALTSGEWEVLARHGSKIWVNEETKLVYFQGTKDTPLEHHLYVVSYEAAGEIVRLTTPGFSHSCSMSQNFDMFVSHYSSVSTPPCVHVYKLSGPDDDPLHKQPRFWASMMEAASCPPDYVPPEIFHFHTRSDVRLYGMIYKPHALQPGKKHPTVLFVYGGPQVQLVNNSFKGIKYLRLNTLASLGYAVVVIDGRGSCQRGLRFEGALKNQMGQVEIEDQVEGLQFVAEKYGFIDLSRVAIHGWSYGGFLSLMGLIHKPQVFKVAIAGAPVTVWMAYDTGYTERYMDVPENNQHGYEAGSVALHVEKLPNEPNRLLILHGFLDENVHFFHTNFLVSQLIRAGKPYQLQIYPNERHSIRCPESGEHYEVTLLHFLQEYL
T2 sequence (P27487 whole entry): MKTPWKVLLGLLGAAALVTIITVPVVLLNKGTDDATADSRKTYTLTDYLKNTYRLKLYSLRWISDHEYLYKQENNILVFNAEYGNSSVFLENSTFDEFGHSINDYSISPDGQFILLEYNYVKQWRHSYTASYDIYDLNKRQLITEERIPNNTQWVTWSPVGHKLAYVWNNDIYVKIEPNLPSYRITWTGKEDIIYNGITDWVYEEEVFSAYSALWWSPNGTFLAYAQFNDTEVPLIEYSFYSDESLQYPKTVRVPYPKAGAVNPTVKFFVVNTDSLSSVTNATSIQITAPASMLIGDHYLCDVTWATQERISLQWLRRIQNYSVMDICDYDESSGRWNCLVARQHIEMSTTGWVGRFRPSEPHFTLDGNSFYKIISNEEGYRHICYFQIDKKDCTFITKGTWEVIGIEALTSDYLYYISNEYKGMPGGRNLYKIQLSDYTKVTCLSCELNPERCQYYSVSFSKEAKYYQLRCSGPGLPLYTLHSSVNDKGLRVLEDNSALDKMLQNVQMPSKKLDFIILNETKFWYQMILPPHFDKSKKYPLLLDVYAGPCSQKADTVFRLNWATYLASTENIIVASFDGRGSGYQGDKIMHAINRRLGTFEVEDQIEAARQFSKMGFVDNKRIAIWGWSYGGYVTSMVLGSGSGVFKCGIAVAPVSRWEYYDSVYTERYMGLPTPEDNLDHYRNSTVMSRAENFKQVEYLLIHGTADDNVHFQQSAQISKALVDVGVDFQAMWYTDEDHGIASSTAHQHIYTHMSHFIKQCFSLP
T5 sequence (P28843 37-760 limits assumed): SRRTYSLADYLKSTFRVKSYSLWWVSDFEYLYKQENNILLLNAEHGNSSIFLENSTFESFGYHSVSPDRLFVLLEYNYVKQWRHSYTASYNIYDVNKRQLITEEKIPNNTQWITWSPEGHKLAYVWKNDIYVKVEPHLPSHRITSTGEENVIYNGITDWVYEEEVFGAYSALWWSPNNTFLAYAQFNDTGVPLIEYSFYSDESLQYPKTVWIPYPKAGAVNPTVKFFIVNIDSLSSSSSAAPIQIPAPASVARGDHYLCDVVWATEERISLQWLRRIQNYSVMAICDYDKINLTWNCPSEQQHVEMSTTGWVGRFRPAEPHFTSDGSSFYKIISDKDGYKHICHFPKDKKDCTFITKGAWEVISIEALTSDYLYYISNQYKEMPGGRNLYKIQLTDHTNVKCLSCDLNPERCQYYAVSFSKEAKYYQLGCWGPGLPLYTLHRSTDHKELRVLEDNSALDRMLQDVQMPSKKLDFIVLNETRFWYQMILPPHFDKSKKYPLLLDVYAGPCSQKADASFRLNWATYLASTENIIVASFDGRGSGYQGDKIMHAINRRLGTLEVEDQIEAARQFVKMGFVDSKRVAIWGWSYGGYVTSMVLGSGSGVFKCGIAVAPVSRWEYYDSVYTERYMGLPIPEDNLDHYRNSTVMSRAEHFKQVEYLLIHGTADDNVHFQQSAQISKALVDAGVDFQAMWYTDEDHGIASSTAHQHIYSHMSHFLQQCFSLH

Row | SMILES | IC50 [1] [µM] | IC50 ([2]; Table 3B) [µM] | IC50 ([3]; Table 3B) [µM] | IC50 ([4]; Table 3B, read-out: rhFAP IC50) [µM] | inhibition at 1 µM [4, 8] [%] | IC50 [6] [µM] | IC50 [7] [µM] | IC50 ([2]; Table 3A) [µM] | IC50 ([3]; Table 3A) [µM] | inhibition at 1 µM [4, 9] [%] | IC50 [4, 10] [µM] | IC50 [4, 11] [µM] | IC50 [5] [µM] | rhFAPα (% exo inh @ 1 μM) ([4]; Table 2) | rhFAPα (% exo inh @ 1 μM) ([4]; Table 3B)
1 | N#C[C@@H]1CC(F)(F)CN1C(=O)CNC(=O)c1ccncc1/C=C/c1ccc2cc(Cl)ccc2c1 [Compound 40] | < 1 | 1 to 10 | > 10 | < 1 | > 50 |  |  |  |  |  |  |  | 3 to 10 |  | 
2 | COc1ccc(/C=C/c2cnccc2C(=O)NCC(=O)N2CC(F)(F)C[C@H]2C#N)cc1 [Compound 15] | < 1 | > 10 | > 10 | < 1 | > 50 |  |  |  |  |  |  |  | > 10 |  | 
3 | N#C[C@@H]1CC(F)(F)CN1C(=O)CNC(=O)c1ccnc2ccc(/C=C/c3ccc(C(F)(F)F)nc3)cc12 [Compound 46] | < 1 | > 10 | > 10 | < 1 | > 50 |  |  |  |  |  |  |  | < 3 |  | 
4 | N#C[C@@H]1CC(F)(F)CN1C(=O)CNC(=O)c1ccnc2ccc(/C=C/c3ccc(Cl)cc3)cc12 [Compound 34] | < 1 | > 10 | > 10 | < 1 | > 50 |  |  |  |  |  |  |  | < 3 |  | 
5 | N#C[C@@H]1CC(F)(F)CN1C(=O)CNC(=O)c1ccncc1/C=C/c1ccc(F)cc1 [Compound 12, (S,E)-N-(2-(2-cyano-4,4-difluoropyrrolidin-1-yl)-2-oxoethyl)-3-(4-fluorostyryl)isonicotinamide] | 1 to 10 | 1 to 10 | > 10 | < 1 | > 50 |  | 1 to 10 | 1 to 10 | > 10 | > 50 | < 1 | < 1 |  |  | 
6 | COc1ccc(C#Cc2ccc3nccc(C(=O)NCC(=O)N4CC(F)(F)C[C@H]4C#N)c3c2)cc1 [Compound 41] | < 1 | > 10 | > 10 | < 1 | > 50 |  |  |  |  |  |  |  | > 10 |  | 
7 | CC(Nc1cnccc1C(=O)NCC(=O)N1CC(F)(F)C[C@H]1C#N)c1ccc(F)cc1 (stereo partly drawn) [Compound 4, N-(2-((S)-2-cyano-4,4-difluoropyrrolidin-1-yl)-2-oxoethyl)-3-((1-(4-fluorophenyl)ethyl)amino)isonicotinamide] | 1 to 10 | 1 to 10 | > 10 | < 1 | > 50 |  | > 10 | 1 to 10 | > 10 | > 50 | < 1 | < 1 |  |  | 
8 | C/C(=C\c1cnccc1C(=O)NCC(=O)N1CC(F)(F)C[C@H]1C#N)c1ccc(F)cc1 [Compound 13, (S,E)-N-(2-(2-cyano-4,4-difluoropyrrolidin-1-yl)-2-oxoethyl)-3-(2-(4-fluorophenyl)prop-1-en-1-yl)isonicotinamide] | 1 to 10 | > 10 | > 10 | < 1 | > 50 |  | 1 to 10 | > 10 | > 10 | > 50 | < 1 | < 1 |  |  | 
9 | Cc1ccc(/C=C/c2ccc3nccc(C(=O)NCC(=O)N4CC(F)(F)C[C@H]4C#N)c3c2)cn1 [Compound 45] | < 1 | > 10 | > 10 | < 1 | > 50 |  |  |  |  |  |  |  | 3 to 10 |  | 
10 | N#C[C@@H]1CC(F)(F)CN1C(=O)CNC(=O)c1ccnc2ccc(/C=C/c3ccc(F)cc3)cc12 [Compound 44] | < 1 | > 10 | > 10 | < 1 | > 50 |  |  |  |  |  |  |  | < 3 |  | 
11 | N#C[C@@H]1CC(F)(F)CN1C(=O)CNC(=O)c1ccncc1NC(=O)Cc1ccccc1 [Compound 1, (S)—N-(2-(2-cyano-4,4-difluoropyrrolidin-1-yl)-2-oxoethyl)-3-(2-phenylacetamido)isonicotinamide] | 1 to 10 | > 10 | > 10 | < 1 | > 50 |  | > 10 | > 10 | > 10 | > 50 | < 1 | < 1 |  |  | 

Continued, in another order:

Row | IC50 [1] [µM] | IC50 ([2]; Table 3B) [µM] | IC50 ([3]; Table 3B) [µM] | IC50 ([4]; Table 3B, read-out: rhFAP IC50) [µM] | inhibition at 1 µM [4, 8] [%] | IC50 [6] [µM] | IC50 [7] [µM] | IC50 ([2]; Table 3A) [µM] | IC50 ([3]; Table 3A) [µM] | inhibition at 1 µM [4, 9] [%] | IC50 [4, 10] [µM] | IC50 [4, 11] [µM] | SMILES | IC50 [5] [µM] | rhFAPα (% exo inh @ 1 μM) ([4]; Table 2) | rhFAPα (% exo inh @ 1 μM) ([4]; Table 3B)
12 |  |  |  |  |  | < 10 |  |  |  |  |  |  | N#CC1CC(F)(F)CN1C(=O)CNC(=O)c1ccnc2ccccc12 (centres unmarked) [Ref. Comp., reference compound] |  | +++ (+++ refers to >50% inhibition at 1 μM test compound) | +++ (+++ refers to >50% inhibition at 1 μM test compound)
13 | < 1 | 1 to 10 | > 10 | < 1 | > 50 |  |  |  |  |  |  |  | Cc1cc(/C=C/c2ccc3nccc(C(=O)NCC(=O)N4CC(F)(F)C[C@H]4C#N)c3c2)ccn1 [Compound 192] | < 3 |  | 
14 | < 1 | > 10 | > 10 | < 1 | > 50 |  |  |  |  |  |  |  | COc1cc(/C=C/c2ccc3nccc(C(=O)NCC(=O)N4CC(F)(F)C[C@H]4C#N)c3c2)ccn1 [Compound 193] | < 3 |  | 
15 | < 1 | 1 to 10 | > 10 | < 1 | > 50 |  |  |  |  |  |  |  | N#C[C@@H]1CC(F)(F)CN1C(=O)CNC(=O)c1ccnc2ccc(/C=C/c3ccnc(C(F)(F)F)c3)cc12 [Compound 194] | < 3 |  | 
16 | < 1 | > 10 | > 10 | < 1 | > 50 |  |  |  |  |  |  |  | N#C[C@@H]1CC(F)(F)CN1C(=O)CNC(=O)c1ccnc2ccc(/C=C/c3ccc(O)nc3)cc12 [Compound 139] | > 10 |  | 
17 | < 1 | > 10 | > 10 | < 1 | > 50 |  |  |  |  |  |  |  | COc1ccc(/C=C/c2ccc3nccc(C(=O)NCC(=O)N4CC(F)(F)C[C@H]4C#N)c3c2)cc1 [Compound 47] | 3 to 10 |  | 
